From patent US20260284275A1, “NANOGEL COMPRISING BIOACTIVE MOLECULES, THERAPEUTIC MOLECULES OR DRUGS TOGETHER WITH AN AMPHIPHILIC MOLECULE” (CM4CURE S.A., priority 2023, published 2026)

How the values were obtained:
[1] = tested on: S. aureus (ATCC BAA-1556, MRSA); test: Real-time microcalorimetry (Calscreener) of bacterial growth in TSB; assay type: cell-based; settings: for bacterial growth (heat flow): 24 h, 37° C.
Description: S. aureus (ATCC BAA-1556, MRSA) was grown overnight in TSB (tryptic soy broth) medium, before being diluted 1×10^4 fold in fresh TSB. Subsequently […] aliquots of diluted bacteria suspensions were supplemented with 10 μg/mL and 20 μg/mL of respectively triafluocyl (Polpharma) alone or in the mixture with TPGS (MedChemExpress LLC (Europe)) (1:1 w/w). Both Triafluocyl and TPGS were prepared in absolute ethanol as already mentioned in the above examples and were refrigerated as master stocks in absolute ethanol. Triafluocyl, TPGS or ethanol (0.6% final conc.) as a vehicle were added to the bacterial suspensions to obtain the concentrations (10 μg/mL and 20 μg/m) followed by a brief vortexing. Bacterial aliquots were then distributed in the dedicated non-activated inserts of a 48-well plate and grown for 24 h under static conditions at 37° C. using Calscreener technology to measure bacterial growth and metabolic activity in Real-Time as described in https://cordis.europa.eu/project/id/784514.
In FIG. 6, the real-time microcalorimetric measurements of bacterial metabolic activity is expressed as the heat flow and represents bacterial growth in TSB medium. Solid line stands for control bacteria with a vehicle (0.6% ethanol); thick dashed line—bacteria treated with 10 μg/mL of triafluocyl; thick dotted line—bacteria treated with 20 μg/mL of triafluocyl; thin dashed line—bacteria treated with both triafluocyl and TPGS (10 μg/mL:10 μg/mL); thin dotted line—bacteria treated with both triafluocyl and TPGS (20 μg/mL:20 μg/mL).

[2] = tested on: S. aureus (MRSA, ATCC 6538); test: Real-time microcalorimetry of bacterial growth in liquid medium; assay type: cell-based; settings: Fluometacyl 10 or 20 μg/mL with hydroxypropyl-β-cyclodextrin 42 μg/mL, 24 h
Description: S. aureus (MRSA, ATCC 6538) was grown overnight in TSB (tryptic soy broth) medium, before being diluted 1×10^7 fold in the fresh TSB. Subsequently […] aliquots of diluted bacteria suspensions were supplemented with Fluometacyl® (10 or 20 μg/mL) or mixture of Fluometacyl® (10 or 20 μg/mL) and hydroxypropyl-β-cyclodextrin (42 μg/mL). Subsequently 300 μL of suspensions were placed into the dedicated non-activated inserts of a 48-well plate and allowed for growing for 24 h under static conditions at 37 C using Calscreener.
Curve A—control bacterial growth for S. aureus MRSA 10^−6; Curve B—Bacteria with Fluometacyl® (10 μg/mL); Curve C—Bacteria with Fluometacyl® (10 μg/mL) and hydroxypropyl-β-cyclodextrin (42 μg/mL); Curve D—Bacteria with Fluometacyl® (20 μg/mL); Curve E—Bacteria with Fluometacyl® (20 μg/mL) and hydroxypropyl-β-cyclodextrin (42 μg/mL).

For `CCCSc1nc(N[C@@H]2C[C@H]2c2ccc(F)c(F)c2)c2nnn([C@@H]3C[C@H](OCCO)[C@@H](O)[C@H]3O)c2n1` [Triafluocyl], the “bacterial growth (heat flow)” value ([1]; 10 μg/mL) was “significantly reduces” and the “bacterial growth (heat flow)” value ([1]; 20 μg/mL) was “fully inhibited”.
`CC(O)COC[C@H]1O[C@@H]2O[C@H]3[C@H](O)[C@@H](O)[C@@H](O[C@H]4[C@H](O)[C@@H](O)[C@@H](O[C@H]5[C@H](O)[C@@H](O)[C@@H](O[C@H]6[C@H](O)[C@@H](O)[C@@H](O[C@H]7[C@H](O)[C@@H](O)[C@@H](O[C@H]8[C@H](O)[C@@H](O)[C@@H](O[C@H]1[C@H](O)[C@H]2O)O[C@@H]8COCC(C)O)O[C@@H]7COCC(C)O)O[C@@H]6COCC(C)O)O[C@@H]5COCC(C)O)O[C@@H]4COCC(C)O)O[C@@H]3COCC(C)O` (stereo partly drawn) [hydroxypropyl-β-cyclodextrin] was tested, and the “effect on the antibacterial activity of Fluometacyl in solution” value [2] was “didn't impair”.
With “D-α-tocopheryl polyethylene glycol succinate [TPGS]” the “effect of added TPGS on the inhibitory effect of triafluocyl on bacterial growth” value ([1]; TPGS at equivalent amount (1:1 w/w) to triafluocyl, 10 and 20 μg/mL) was “significantly reduced the inhibitory effect”.
